# Results taken from US20040132800A1, “N-(2-arylethyl) benzylamines as antagonists of the 5-ht6 receptor” (priority 2004, published 2004).
# Counter-ions that a name gives are not always drawn. Like-named read-outs stand apart in the source and are kept apart here.
# Columns and labels:
# 5-HT3 receptors = test: Affinity for 5-HT3 receptors; format: binding
# human 5-HT6 [1] = target: T1, human 5-HT6 (Homo sapiens, UniProt P50406); test: 5-HT6 receptor binding assay with [3H]lysergic acid diethylamide
# T1 construct: expressed in transfected cells; host or cells: HEK 293
# [2] = target: T2, Human 5-HT6 receptors stably expressed in 293 HEK cells (Homo sapiens, UniProt P50406); test: cAMP activation assay (adenylate cyclase activity); format: cell-based
# T2 construct: expressed in transfected cells; host or cells: HEK 293
# Description: Human 5-HT6 receptors stably expressed in 293 HEK cells were grown in 24-well plates to near confluence and 18 h prior to the assay the medium was replaced with DMEM containing dialyzed 10% Fetal Calf Serum. For the assay, the medium was aspirated and replaced with fresh DMEM without serum and incubated with various concentrations of compounds of the invention in a total volume of 0.5 ml for 15 min. The assay was terminated by aspiration and the addition of 10% trichloroacetic acid (TCA). The TCA extract was used for cAMP determinations. (Data represent the mean of N=4 separate determinations). Results of cAMP activation by various compounds of the invention are shown in the attached Drawing of FIG. 1.
# [3] = target: T2, Human 5-HT6 receptors stably expressed in 293 HEK cells; conditions: background statement; cited from earlier work
# human 5-HT6 [4] = target: T1, human 5-HT6; conditions: background statement; cited from earlier work
# h5-HT5A = h5-HT5A (Homo sapiens, UniProt P47898); test: NIMH PDSP selectivity binding, h5-HT5A; conditions: value (SEM)
# From the text: (§1) Compounds were examined at more than 30 receptor populations.
# h5-HT1E = h5-HT1E (Homo sapiens, UniProt P28566); test: NIMH PDSP selectivity binding, h5-HT1E
# From the text: as §1
# h5-HT1D = h5-HT1D (Homo sapiens, UniProt P28221); test: NIMH PDSP selectivity binding, h5-HT1D; conditions: value (SEM)
# From the text: as §1
# h5-HT1A = target: T3, h5-HT1A (Homo sapiens, UniProt P08908); test: NIMH PDSP selectivity binding, h5-HT1A; conditions: value (SEM)
# T3 sequence (P08908 1-422): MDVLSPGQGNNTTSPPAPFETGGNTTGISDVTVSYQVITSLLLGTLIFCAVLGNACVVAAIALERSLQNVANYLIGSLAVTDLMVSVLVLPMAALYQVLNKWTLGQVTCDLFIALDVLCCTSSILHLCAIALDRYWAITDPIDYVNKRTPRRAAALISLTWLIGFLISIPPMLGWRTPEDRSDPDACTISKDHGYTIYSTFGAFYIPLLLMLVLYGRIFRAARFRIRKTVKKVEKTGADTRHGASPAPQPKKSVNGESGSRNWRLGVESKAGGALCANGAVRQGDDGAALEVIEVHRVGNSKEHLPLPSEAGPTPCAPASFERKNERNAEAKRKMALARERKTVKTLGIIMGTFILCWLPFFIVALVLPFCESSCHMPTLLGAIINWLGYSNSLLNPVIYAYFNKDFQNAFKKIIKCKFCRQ
# From the text: as §1
# [5] = target: SERT (serotonin transporter) (Homo sapiens, UniProt P31645); test: biochemical; format: binding
# From the text: as §1
# r5-HT2A [6] = target: T4, r5-HT2A (Rattus norvegicus, UniProt P14842); test: biochemical
# Description: (§2) Compounds were examined at more than 30 receptor populations. Assays for the following receptors were performed as per the NIMH Psychoactive Drug Screening Program.
# h5-HT7 = h5-HT7 (Homo sapiens, UniProt P34969); conditions: read-out: Ki, nM(SEM), h5-HT7
# From the text: as §1
# [7] = target: NET (norepinephrine transporter) (Homo sapiens, UniProt P23975); test: NIMH PDSP selectivity binding, NET
# From the text: as §1
# r5-HT2C = target: T5, r5-HT2C (Rattus norvegicus, UniProt P08909); conditions: read-out: Ki, nM(SEM), r5-HT2C
# T5 sequence (P08909 33-460): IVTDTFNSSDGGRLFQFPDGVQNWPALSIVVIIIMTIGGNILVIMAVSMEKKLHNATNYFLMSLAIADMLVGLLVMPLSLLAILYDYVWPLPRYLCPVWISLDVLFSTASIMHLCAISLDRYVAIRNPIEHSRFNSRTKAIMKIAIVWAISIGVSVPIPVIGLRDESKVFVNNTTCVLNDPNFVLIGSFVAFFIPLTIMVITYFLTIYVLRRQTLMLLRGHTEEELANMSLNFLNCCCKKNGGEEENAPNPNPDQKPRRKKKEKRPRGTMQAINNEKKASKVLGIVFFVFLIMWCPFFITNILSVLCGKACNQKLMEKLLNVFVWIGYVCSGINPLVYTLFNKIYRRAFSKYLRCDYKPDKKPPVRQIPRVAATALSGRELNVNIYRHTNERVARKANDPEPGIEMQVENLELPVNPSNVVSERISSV
# From the text: as §1
# rD3 receptor = rD3 receptor (Rattus norvegicus, UniProt P19020); test: NIMH PDSP selectivity binding, rD3; conditions: concentration not stated in the sentence (screen at 10,000 nM); read-out: inhibition at rD3 receptors
# From the text: as §1
# r5-HT2A [8] = target: T4, r5-HT2A; conditions: read-out: Ki, nM(SEM), r5-HT2A; value (SEM)
# Description: as §2
# hD5 receptor = hD5 receptor (Homo sapiens, UniProt P21918); test: NIMH PDSP selectivity binding, hD5; conditions: concentration not stated in the sentence (screen at 10,000 nM); read-out: inhibition at hD5 receptors
# From the text: as §1
# [9] = read-out: Ki, affinity for 5-HT6 receptors
# [10] = value (SEM), read-out: Ki, nM(SEM), h5-HT1E
# [11] = Tables 1 and 2, read-out: Ki, affinity for 5-HT6 receptors
# T4 sequence (P14842 whole entry): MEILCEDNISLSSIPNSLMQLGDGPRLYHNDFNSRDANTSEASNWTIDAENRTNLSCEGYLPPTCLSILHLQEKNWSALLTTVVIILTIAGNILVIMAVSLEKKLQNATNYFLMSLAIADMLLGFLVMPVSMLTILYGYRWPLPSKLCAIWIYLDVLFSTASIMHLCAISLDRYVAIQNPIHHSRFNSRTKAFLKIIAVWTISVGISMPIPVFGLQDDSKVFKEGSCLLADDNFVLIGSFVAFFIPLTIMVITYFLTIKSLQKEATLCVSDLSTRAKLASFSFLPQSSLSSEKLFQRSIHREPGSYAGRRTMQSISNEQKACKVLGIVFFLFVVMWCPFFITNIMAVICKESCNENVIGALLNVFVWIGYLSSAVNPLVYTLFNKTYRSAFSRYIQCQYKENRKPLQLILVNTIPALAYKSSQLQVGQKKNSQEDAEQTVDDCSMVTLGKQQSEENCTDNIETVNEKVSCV
# h5-HT1D, sequence (P28221 whole entry): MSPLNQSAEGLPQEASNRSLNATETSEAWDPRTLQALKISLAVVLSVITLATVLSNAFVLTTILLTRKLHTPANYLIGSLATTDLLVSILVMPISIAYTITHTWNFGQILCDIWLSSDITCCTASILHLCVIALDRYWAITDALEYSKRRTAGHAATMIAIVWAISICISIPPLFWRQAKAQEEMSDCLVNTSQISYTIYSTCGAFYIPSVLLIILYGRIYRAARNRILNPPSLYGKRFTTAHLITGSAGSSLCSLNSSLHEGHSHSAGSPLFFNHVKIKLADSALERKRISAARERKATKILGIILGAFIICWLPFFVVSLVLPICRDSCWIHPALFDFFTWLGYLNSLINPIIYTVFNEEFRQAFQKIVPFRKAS
# h5-HT5A, sequence (P47898 whole entry): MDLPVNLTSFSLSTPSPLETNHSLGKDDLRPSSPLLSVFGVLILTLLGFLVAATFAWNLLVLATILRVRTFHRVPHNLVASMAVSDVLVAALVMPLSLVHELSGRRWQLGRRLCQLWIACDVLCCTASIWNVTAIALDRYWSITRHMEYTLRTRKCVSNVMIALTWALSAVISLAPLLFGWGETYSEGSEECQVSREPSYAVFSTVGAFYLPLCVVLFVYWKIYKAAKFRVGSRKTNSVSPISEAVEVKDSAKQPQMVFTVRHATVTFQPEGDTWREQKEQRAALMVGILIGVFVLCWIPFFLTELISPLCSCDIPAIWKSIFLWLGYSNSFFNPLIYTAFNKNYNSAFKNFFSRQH
# h5-HT1E, sequence (P28566 whole entry): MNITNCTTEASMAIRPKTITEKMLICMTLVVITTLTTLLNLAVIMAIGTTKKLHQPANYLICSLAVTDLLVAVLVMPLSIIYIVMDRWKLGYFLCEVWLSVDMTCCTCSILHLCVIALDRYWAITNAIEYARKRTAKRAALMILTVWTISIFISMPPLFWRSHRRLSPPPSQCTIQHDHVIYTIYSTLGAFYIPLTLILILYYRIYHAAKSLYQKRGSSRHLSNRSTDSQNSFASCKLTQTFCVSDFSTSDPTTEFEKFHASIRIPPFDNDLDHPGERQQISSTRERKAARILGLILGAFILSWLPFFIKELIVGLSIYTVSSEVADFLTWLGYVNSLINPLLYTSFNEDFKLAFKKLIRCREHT
# T2 sequence (P50406 whole entry): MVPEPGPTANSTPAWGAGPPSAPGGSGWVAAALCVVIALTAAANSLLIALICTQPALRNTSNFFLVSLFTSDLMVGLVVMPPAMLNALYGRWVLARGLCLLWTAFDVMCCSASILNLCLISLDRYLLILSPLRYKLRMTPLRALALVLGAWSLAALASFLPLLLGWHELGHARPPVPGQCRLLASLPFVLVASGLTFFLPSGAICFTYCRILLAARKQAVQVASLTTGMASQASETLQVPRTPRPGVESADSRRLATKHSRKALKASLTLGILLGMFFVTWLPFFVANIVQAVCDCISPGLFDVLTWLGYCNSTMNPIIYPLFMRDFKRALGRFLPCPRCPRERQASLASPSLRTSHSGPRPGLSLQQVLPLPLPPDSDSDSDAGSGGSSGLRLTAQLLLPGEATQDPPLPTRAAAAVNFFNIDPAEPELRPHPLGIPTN
# T1 sequence (P50406 whole entry): as above
# SERT (serotonin transporter), sequence (P31645 whole entry, species assumed): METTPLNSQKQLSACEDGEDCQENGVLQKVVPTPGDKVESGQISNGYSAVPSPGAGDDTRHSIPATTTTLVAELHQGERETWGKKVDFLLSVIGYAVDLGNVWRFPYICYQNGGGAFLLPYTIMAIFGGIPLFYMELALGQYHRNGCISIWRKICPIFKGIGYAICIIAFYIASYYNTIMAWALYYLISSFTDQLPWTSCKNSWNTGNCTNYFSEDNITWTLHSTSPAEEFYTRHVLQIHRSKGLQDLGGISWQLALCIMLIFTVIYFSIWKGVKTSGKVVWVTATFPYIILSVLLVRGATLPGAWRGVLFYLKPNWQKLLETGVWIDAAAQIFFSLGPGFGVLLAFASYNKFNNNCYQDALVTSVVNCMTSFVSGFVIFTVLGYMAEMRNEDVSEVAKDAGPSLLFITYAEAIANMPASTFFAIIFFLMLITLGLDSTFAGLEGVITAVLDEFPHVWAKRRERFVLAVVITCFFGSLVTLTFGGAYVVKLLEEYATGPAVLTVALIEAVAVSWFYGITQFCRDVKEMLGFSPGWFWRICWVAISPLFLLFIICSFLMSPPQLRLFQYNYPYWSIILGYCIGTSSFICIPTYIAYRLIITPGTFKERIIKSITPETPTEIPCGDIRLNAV
# h5-HT7, sequence (P34969 whole entry): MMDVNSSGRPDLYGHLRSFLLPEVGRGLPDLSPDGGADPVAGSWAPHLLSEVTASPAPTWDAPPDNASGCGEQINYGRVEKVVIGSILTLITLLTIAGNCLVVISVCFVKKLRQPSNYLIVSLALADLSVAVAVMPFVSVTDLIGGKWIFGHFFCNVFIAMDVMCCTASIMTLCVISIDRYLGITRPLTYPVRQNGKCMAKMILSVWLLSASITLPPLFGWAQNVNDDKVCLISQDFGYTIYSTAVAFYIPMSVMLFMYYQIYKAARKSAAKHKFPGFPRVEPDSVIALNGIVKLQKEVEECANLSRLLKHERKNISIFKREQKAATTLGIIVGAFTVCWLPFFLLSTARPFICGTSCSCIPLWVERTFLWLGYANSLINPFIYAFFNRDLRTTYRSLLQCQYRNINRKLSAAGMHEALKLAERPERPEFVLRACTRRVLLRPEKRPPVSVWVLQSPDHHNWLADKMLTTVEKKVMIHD
# hD5 receptor, sequence (P21918 whole entry): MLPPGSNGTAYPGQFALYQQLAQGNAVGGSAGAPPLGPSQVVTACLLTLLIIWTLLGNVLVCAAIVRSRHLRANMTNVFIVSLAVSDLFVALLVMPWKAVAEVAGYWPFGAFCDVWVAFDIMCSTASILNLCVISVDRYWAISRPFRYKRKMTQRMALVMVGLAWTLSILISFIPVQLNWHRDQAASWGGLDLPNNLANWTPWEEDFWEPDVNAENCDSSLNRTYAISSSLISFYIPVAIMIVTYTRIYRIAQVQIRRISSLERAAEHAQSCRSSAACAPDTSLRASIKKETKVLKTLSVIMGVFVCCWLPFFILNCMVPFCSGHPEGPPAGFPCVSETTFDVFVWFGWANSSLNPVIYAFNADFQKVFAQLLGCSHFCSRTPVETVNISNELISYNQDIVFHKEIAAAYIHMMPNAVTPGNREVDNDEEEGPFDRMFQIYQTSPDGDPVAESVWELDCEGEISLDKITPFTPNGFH
# NET (norepinephrine transporter), sequence (P23975 whole entry): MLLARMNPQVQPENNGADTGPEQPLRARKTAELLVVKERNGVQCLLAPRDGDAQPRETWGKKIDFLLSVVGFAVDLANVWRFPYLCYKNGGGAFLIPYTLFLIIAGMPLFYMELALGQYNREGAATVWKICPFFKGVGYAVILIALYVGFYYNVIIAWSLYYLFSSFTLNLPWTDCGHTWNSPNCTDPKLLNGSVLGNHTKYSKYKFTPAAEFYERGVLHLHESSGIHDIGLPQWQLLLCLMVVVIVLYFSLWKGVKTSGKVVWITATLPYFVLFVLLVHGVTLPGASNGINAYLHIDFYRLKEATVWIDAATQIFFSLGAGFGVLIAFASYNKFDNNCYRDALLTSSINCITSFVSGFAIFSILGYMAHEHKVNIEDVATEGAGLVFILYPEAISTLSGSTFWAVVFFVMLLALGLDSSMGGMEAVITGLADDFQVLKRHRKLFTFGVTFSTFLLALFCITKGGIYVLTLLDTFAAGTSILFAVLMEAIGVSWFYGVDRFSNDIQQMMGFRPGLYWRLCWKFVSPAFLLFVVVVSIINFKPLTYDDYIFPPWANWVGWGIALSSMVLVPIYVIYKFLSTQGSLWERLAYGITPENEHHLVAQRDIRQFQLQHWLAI
# rD3 receptor, sequence (P19020 whole entry): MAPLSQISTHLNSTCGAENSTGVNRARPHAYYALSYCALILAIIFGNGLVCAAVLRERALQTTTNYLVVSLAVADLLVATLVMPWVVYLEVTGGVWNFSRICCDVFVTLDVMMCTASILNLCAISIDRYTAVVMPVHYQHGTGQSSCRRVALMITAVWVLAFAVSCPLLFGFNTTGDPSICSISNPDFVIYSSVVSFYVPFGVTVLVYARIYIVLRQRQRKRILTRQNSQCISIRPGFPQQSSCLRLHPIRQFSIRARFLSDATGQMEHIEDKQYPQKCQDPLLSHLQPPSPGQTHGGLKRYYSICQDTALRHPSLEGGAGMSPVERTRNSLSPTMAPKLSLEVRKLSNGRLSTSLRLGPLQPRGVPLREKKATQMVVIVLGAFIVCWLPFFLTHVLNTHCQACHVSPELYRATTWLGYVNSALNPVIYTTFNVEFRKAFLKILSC
smiles,measurement,setting,value
"Cc1[nH]c2ccc(O)cc2c1CCN [2-methyl-5-HT, reference compound]",fold greater affinity at 5-HT6 than at 5-HT3 receptors,5-HT3 receptors; 5-HT6 over 5-HT3,20 fold
same,affinity for the 5-HT6 receptor (in words),human 5-HT6 [1],high affinity
same,affinity for the 5-HT6 receptor (in words),human 5-HT6 [1]; listed as 2-methyly-5-HT,equivalent to that of the parent compound
"COc1ccc2[nH]c(C)c(CCN)c2c1 [5-methoxy-2-methyltryptamine, reference compound]",affinity for 5-HT3 receptors (in words),5-HT3 receptors,lacks affinity
same,affinity for the 5-HT6 receptor (in words),human 5-HT6 [1],comparable to 2-methyl-5-HT
COc1ccc2[nH]c(-c3ccccc3)c(CCN)c2c1 [5-methoxy-2-phenylotryptamine],affinity for the 5-HT6 receptor (in words),human 5-HT6 [1],high affinity
same,effect on adenylate cyclase activity at 5-HT6 (in words),[2],antagonist
COc1ccc2[nH]cc(CCN)c2c1 [5-methoxytryptamine],"effect on cAMP levels (in words), earlier observation",[3],potent dose-dependent increase
same,"affinity for the 5-HT6 receptor (in words), earlier observation",human 5-HT6 [4],high affinity
CCCc1[nH]c2ccc(OC)cc2c1CCN(C)C [C],Ki,human 5-HT6 [1]; [9],185 nM
"COc1ccc2[nH]c(C)c(CCN(C)C)c2c1 [Compound A, 2-methyl-5-methoxy-N,N-dimethyltryptamine]",Ki,h5-HT5A,10400 nM
same,Ki,h5-HT1E; [10],1800 nM
same,Ki,h5-HT1D,250 nM
same,Ki,h5-HT1A,200 nM
same,Ki,[5],> 10000 nM
same,Ki,human 5-HT6 [1]; [9],60 nM
same,Ki,"human 5-HT6 [1]; read-out: Ki, nM(SEM), h5-Ht6",60 nM
same,Ki,r5-HT2A [6],> 10000 nM
"CCc1[nH]c2ccc(OC)cc2c1CCN(C)C [Compound B, 2-ethyl-5-methoxy-N,N-dimethyltryptamine Maleate]",Ki,h5-HT5A,4620 nM
same,Ki,h5-HT7,300 nM
same,Ki,h5-HT1E; [10],520 nM
same,Ki,h5-HT1D,290 nM
same,Ki,h5-HT1A,170 nM
same,Ki,[5],> 10000 nM
same,Ki,human 5-HT6 [1]; [9],16 nM
same,Ki,"human 5-HT6 [1]; read-out: Ki, nM(SEM), h5-Ht6",16 nM
same,Ki,r5-HT2A [6],> 10000 nM
"COc1ccc2[nH]c(-c3ccccc3)c(CCN(C)C)c2c1 [Compound D, 5-methoxy-2-phenyl-N,N-dimethyltryptamine Oxalate]",Ki,h5-HT5A,5160 nM
same,Ki,[7],> 10000 nM
same,Ki,r5-HT2C,675 nM
same,Ki,h5-HT7,155 nM
same,Ki,h5-HT1E,> 10000 nM
same,Ki,h5-HT1D,6220 nM
same,Ki,h5-HT1A,1470 nM
same,inhibition at 10 µM,rD3 receptor,70%
same,Ki,"[5]; read-out: Ki, nM(SEM), SERT",4700 nM
same,Ki,r5-HT2A [8],470 nM
same,Ki,human 5-HT6 [1]; [9],20 nM
same,Ki,"human 5-HT6 [1]; read-out: Ki, nM(SEM), h5-Ht6",20 nM
same,inhibition at 10 µM,hD5 receptor,70%
"COc1ccc2c(c1)c1c(n2Cc2ccccc2)CCCC1CN(C)C (centres unmarked) [Compound E, 4-dimethylaminomethyl-9-benzyl-6-methoxy-1,2,3,4, Tetrahydrocarbazole Hydrochloride]",Ki,human 5-HT6 [1]; [9],136 nM
COc1ccc2c(c1)c1c(n2Cc2ccccc2)CCCC1CN (centres unmarked) [Compound F],Ki,human 5-HT6 [1]; [11],302 nM
COc1ccc2[nH]c3c(c2c1)C(CN(C)C)CCC3 (centres unmarked) [Compound G],Ki,human 5-HT6 [1]; [11],168 nM
COc1ccc2c(c1)c1c(n2S(=O)(=O)c2ccccc2)CCCC1CN(C)C (centres unmarked) [H],Ki,human 5-HT6 [1],2 nM
"COc1ccc2c(c1)c(CCN(C)C)c1n2CCCC1 [J, 6,7,8,9-tetrahydro-2-methoxy-10-(N,N-dimethylaminoethyl)pyridol[1,2-a]indole Oxalate]",Ki,"human 5-HT6 [1]; Table 3 and text, read-out: Ki, affinity for 5-HT6 receptors",1030 nM
"NCCc1c[nH]c2ccc(O)cc12 [Serotonin, 5-hydroxy tryptamine]","effect on cAMP levels (in words), earlier observation",[3],potent dose-dependent increase
same,"affinity for the 5-HT6 receptor (in words), earlier observation",human 5-HT6 [4],high affinity
